Test system: Caco-2 cells
Assay: Cellular uptake study (flow cytometry, confocal microscopy)
Assay type: cell-based, Human
Details: Caco-2 monolayer, 0.5 h incubation, 200 ng/mL coumarin-6 equivalent
Experimental: Caco-2 cell monolayers approximately 21-24 days post seeding were used for the cellular uptake study. Before the experiments, the monolayers were washed with HBSS (pH 7.4) twice and then preincubated with HBSS at 37° C. for 30 min. The HBSS (control), free coumarin-6 solution (200 ng/mL), ERSNPs-C6 or PLGANPs-C6 suspension in HBSS equivalent to 200 ng/mL of coumarin-6 were added in the donor compartment while 3 mL of HBSS was added in the receiver compartment. These Caco-2 cell monolayers were incubated for 0.5 h and 1 h at 37° C. in an atmosphere of 5% CO2 and 90% relative humidity. The flow cytometry and confocal microscopy were used to assess the intracellular fluorescence. After 0.5 h and 1 h of incubation, the cell monolayers were washed with phosphate buffered saline (PBS, pH 7.4) three times following by trypsinization for 5 min (100 μL, 0.25% trypsin EDTA). Trypsinization was stopped by adding 1 mL of cold PBS. Cells were detached from the inserts by pipetting and centrifuged at 1000 rpm for 5 min The cells were resuspended in 2 mL PBS and analyzed by using fluorescent activated flow cytometry (BD FACS Calibur) and BD CellQuest software (BD Biosciences, NJ, USA). This experiment was performed in triplicate.
For confocal microscopic study, after 0.5 hours of incubation at 37° C., cell monolayer was washed with PBS three times. […]

SMILES: CCN(CC)c1ccc2cc(-c3nc4ccccc4s3)c(=O)oc2c1 [coumarin-6, Coumarin-6]
- cellular uptake efficiency (fluorescence intensity of cells): 1.27±0.3%

— US20140093573A1, “NON-ENTERIC COATED PHARMACEUTICAL COMPOSITION AND USE THEREOF” (NATIONAL TAIWAN UNIVERSITY, priority 2012, published 2014)
